We go through five compounds from patent US20110201665A1, “Compositions, Methods, and Kits for Treating Influenza Viral Infections” (priority 2009, published 2011).

For series [1], the system named is Influenza A/NWS/33 (H1N1). More on the design: species or system C57/BL6 mice. As to conditions: mouse, in vivo; for survival on day 8: po.
The conditions of series [2]: in vivo, po; cited from earlier work.
The subject of the next series is influenza A or B viruses. As to conditions: human, in vivo, po; cited from earlier work.
On the set-up of series [3]: dose or concentration left out as unconfirmed. Conditions: Phase I, single or multiple oral doses; cited from earlier work.

On to `CC(C)C(=O)c1c(C(C)C)nn2ccccc12` [ibudilast, 1-(2-isopropyl-pyrazolo[1,5-a]pyridine-3-yl)-2-methylpropan-1-one], for which, in series [1], the “survival on day 8” value worked out at 0%.

A word on the half-life: it is the time needed for the level to fall by half in the phase considered. `CCOC(=O)C1=C[C@@H](OC(CC)CC)[C@H](NC(C)=O)[C@@H](N)C1` [oseltamivir, (3R,4R,5S)-4-acetylamino-5-amino-3(1-ethylpropoxy)-1-cyclohexene-1-carboxylic acid, ethyl ester] registered a survival rate in series [1] of 40%. Further, the half-life in series [2] was 6 to 10 h.

As to `CCC(CC)[C@H](NC(C)=O)[C@@H]1[C@H](O)[C@@H](C(=O)O)C[C@H]1NC(=N)N` [peramivir, (1S,2S,3S,4R)-3-[(1S)-1-Acetamido-2-ethyl-butyl]-4-(diaminomethylideneamino)-2-hydroxy-cyclopentane-1-carboxylic acid], the adverse effects result in the series on influenza A or B viruses is “no adverse effects”. For the same compound, the tolerability entry in series [3] is “well-tolerated”.

Regarding `O=C(Nc1c(Cl)cncc1Cl)c1ccc(OC(F)F)c(OCC2CC2)c1` [roflumilast, 3-(cyclopropylmethoxy)-N-(3,5-dichloropyridin-4-yl)-4-(difluoromethoxy)benzamide], the “survival on day 8” value in series [1] is listed as 0%.

Regarding `COc1ccc(C2CNC(=O)C2)cc1OC1CCCC1` (stereo not shown) [rolipram, 4-[3-(cyclopentyloxy)-4-methoxyphenyl]-2-pyrrolidone], the “survival on day 8” value in series [1] was found to be 0%.
